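Grown in 96-well plates, cells were treated for 48 hours with each compound at five concentrations. Insufficient inhibition: endpoint recorded as highest concentration tested. The concentration for full growth arrest is given as TGI.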
Columns and labels:
Test in all cases: NCI anticancer screen, dose series, 48 h
HT29 colon = system: HT29 colon
SK-OV-3 ovarian = system: SK-OV-3 ovarian
SF-268 CNS = system: SF-268 CNS
UACC-62 melanoma = system: UACC-62 melanoma
SW-620 colon = system: SW-620 colon
NCI-H522 lung = system: NCI-H522 lung
LOX IMVI melanoma = system: LOX IMVI melanoma
SN12C renal = system: SN12C renal
SNB-19 CNS = system: SNB-19 CNS
T-47D breast = system: T-47D breast
SF-295 CNS = system: SF-295 CNS
NCI/ADR-RES ovarian = system: NCI/ADR-RES ovarian
UO-31 renal = system: UO-31 renal

SMILES	TGI (HT29 colon) [µM]	TGI (SK-OV-3 ovarian) [µM]	TGI (SF-268 CNS) [µM]	TGI (UACC-62 melanoma) [µM]	TGI (SW-620 colon) [µM]	TGI (NCI-H522 lung) [µM]	TGI (LOX IMVI melanoma) [µM]	TGI (SN12C renal) [µM]	TGI (SNB-19 CNS) [µM]	TGI (T-47D breast) [µM]	TGI (SF-295 CNS) [µM]	TGI (NCI/ADR-RES ovarian) [µM]	TGI (UO-31 renal) [µM]
COc1ccc2c(c1)N(C(C)=O)CN1C(=O)CCC21 (centres undefined)	> 100	> 100	> 100	> 100	> 100	> 100	> 100	> 100	> 100	> 100	> 100	> 100	> 100
Nc1nc(Cl)cc(NCC2(CO)CCC2)n1	> 100	> 100	> 100	> 100	> 100	> 100	> 100	> 100	> 100	> 100	> 100	> 100	> 100
N#CC1=C(C#N)/C(=C(\C#N)C(C#N)C#N)N=C1N	62.1	> 100	> 100	30.3	> 100	47.7	55.8	> 100	> 100	> 100	> 100	> 100	> 100
COc1ccc(Nc2nc(N)c(C(=O)c3ccc(OC)cc3)s2)cc1	> 48.5	28.7	> 100	> 100	> 37.5	0.455	> 100	> 64.5	> 49.5	> 100	40.6	> 100	44.3
CC1(C)[C@@H]2C[C@H]1C(Cc1ccc(C[C@H]3c4cc(-c5ccccn5)ncc4[C@H]4C[C@@H]3C4(C)C)cc1)c1cc(-c3ccccn3)ncc12 (some centres undefined)	> 100	> 100	28.6	5.68	> 100	> 100	7.55	23.3	> 100	> 100	> 100	22.2	4.91
CC1(C)C=C(/C=N/Nc2ccc(Br)cc2)C(C#N)=C(O)C1(C#N)C#N	> 100	> 100	> 100	> 100	> 100	> 100	> 100	> 100	> 100	> 100	> 100	> 100	86
Cc1cc(NC(=O)C(=O)Cc2cnc3ccccc3n2)c(S(=O)(=O)O)cc1Cl	> 100	> 100	> 100	> 100	> 100	> 100	> 100	> 100	> 100	> 100	> 100	> 100	> 100
C=C1CC2(OC1=O)c1ccccc1C=Cc1ccccc12	6.8	30.8	17.4	9.96	4.54	3.35	4.1	7.14	29.9	4.37	32.1	3.06	15.7

Source: PubChem BioAssay (NCI)
